Where a SMILES comes first, the peptide text is derived from it. Where no end group is shown, it is not given here.
What was measured:
PBMC = PBMC stimulation test, IL-6 in supernatant by ELISA; assay type: cell-based, human; details: PBMC 1×10^6 cell/ml, peptide 10 μg/ml, 5 days of culture
From the text: The SE-DR molecule is directly related to the pathogenesis of RA. It can present RA-related autoantigens in vivo, such as type II collagen (CII), heat shock protein 60 (Hsp60), cartilage glycoprotein (HCgp-39) and so on, and further activate autoreactive T cells, leading to the occurrence of rheumatoid arthritis. An important strategy for the treatment of RA is to use competitive inhibition to block the activation of autoreactive T cells by autoantigen peptides. […] Based on the above principles, we have designed and synthesized a series of altered peptide ligands, and screened for their affinity to SE-DR and for the activation ability on the peripheral blood T cells in RA patients. The specific steps and results are shown in Example 1 and Example 2.
3 mL ficoll was added to a 15 mL centrifuge tube, and 4 mL blood sample was then applied on the surface of ficoll. The tube was centrifuged at 400 g at 18-20° C. for 30-40 min. The upper layer of plasma was aspirated with a Pasteur pipette, and the PBMC layer (approximately 2 mL) was aspirated, and added to a 14 mL centrifuge tube previously filled with at least 3 volumes (6 mL) of PBS. The mixture was gently resuspended. The tube was centrifuged at 60-100 g for 10 min at 18-20° C. After centrifugation, the supernatant was removed with a Pasteur pipette, and the resulting cell mass was resuspended in 6-8 mL PBS and centrifuged at 18-20° C. for 10 min at 60-100 g to remove the supernatant. The cells were resuspended in an appropriate amount of 1640 complete medium and diluted to 1×10^6 cell/ml after cell counting. The diluted cell suspension was added to a 96-well plate. The positive control, allosteric peptide, was added to 100 μl cell culture to a final concentration of 10 μg/ml. The mixture was replenished to 200 μL with 1640 complete medium. After 5 days of culture, the supernatant was aspirated, centrifuged at 3000 rpm for 5 minutes, and the level of IL-6 in the supernatant was detected by ELISA.

[1] = tested on: immune system of healthy rats; test: Immune indicators of SD rats after one month of administration (Example 4); assay type: in vivo, rat; details: once a day for 4 weeks, end of administration
Procedure: SD rats were used to investigate the effects of the SE-DR affinity peptides on the immune indicators of the rats after continuous administration for one month. […] At the end of administration, analysis was conducted on the serum anti-FNS007 antibodies, different types of serum immunoglobulins, the serum complement, the peripheral blood T lymphocyte and the serum cytokines.

[2] = tested on: immune system of healthy monkeys; test: Immune indicators of cynomolgus monkeys after one month of administration (Example 5); assay type: in vivo, cynomolgus monkey; details: once a day for 4 weeks, end of administration
From the text: Cynomolgus monkeys were used to investigate the effects of the SE-DR affinity peptide on the immune indicators of cynomolgus monkeys after continuous administration for one month. […] At the end of administration, the immune indicators, including the serum anti-FNS007 antibodies, the immunoglobulins of different serotypes, the serum complement, the peripheral blood T lymphocyte and the serum cytokines, were observed.

[3] = tested on: CIA mice infected with chronic hepatitis B; test: CIA mice infected with chronic hepatitis B (Example 8); assay type: in vivo, mouse
Procedure: Establishment of chronic hepatitis B model in mice: DBA/1 mice were injected with Raav8-1. 3 HBV (1×10^12 vg/mL) via tail vein to establish HBV chronic hepatitis B model.
DBA/1 mice infected with chronic hepatitis B were used to establish CIA model with chronic hepatitis B infection. Methods: Two days after the mice were injected with Raav8-1.3 HBV (1×10^12 vg/mL) via tail vein, the emulsion of bovine C II and CFA (containing 100 μg collagen) was intradermally injected into the tail head of the mice for immunization. After 21 days, the mice were boosted once by intraperitoneal injection of the emulsion (containing 100 μg collagen) prepared by bovine C II and IFA. Thereafter, the morphological changes of the four paws of the mice were examined every day, and the mice were randomly assigned to the treatment group at inflammation score of 1. […] Another 10 mice with latent hepatitis B infection were not subjected to model establishment and set as the control group. PBS was administrated to both the model group and the control group. The mice in each group were given the corresponding drugs by tail intravenous injection at the volume of 10 ml/kg, once every other day, for 27 consecutive days. The mice were sacrificed on day 28 after administration. The inflammation scores of the four paws of the mice in each group were evaluated during the administration. The serological indicators for virus injection and liver function of the mice were detected on the day of booster immunization (22 days after tail vein injection) and at the time of sacrifice.

[4] = tested on: CIA rats with latent tuberculosis infection

CC(C)C[C@H](NC(=O)[C@@H](NC(=O)[C@H](Cc1ccccc1)NC(=O)[C@H](CO)NC(=O)[C@@H](N)CCCNC(=N)N)[C@@H](C)O)C(=O)N[C@@H](CC(=O)O)C(=O)NCC(=O)N[C@@H](CO)C(=O)N[C@@H](CCC(=O)O)C(=O)N[C@H](C(=O)NCC(=O)N[C@H](C(=O)NCC(=O)O)C(C)C)[C@@H](C)O [APL19]
IL-6 levels in the supernatant (PBMC): 15.8 ng/mL

C[C@H](NC(=O)CNC(=O)CNC(=O)[C@H](CCC(N)=O)NC(=O)[C@H](CCC(=O)O)NC(=O)CNC(=O)[C@H](CCCCN)NC(=O)[C@@H](N)Cc1ccccc1)C(=O)NCC(=O)N[C@@H](CCC(=O)O)C(=O)O [APL1]
IL-6 levels in the supernatant (PBMC): 18.9 ng/mL

CC(C)C[C@H](NC(=O)[C@H](CCCNC(N)=O)NC(=O)[C@@H](NC(=O)[C@H](C)NC(=O)[C@H](CO)NC(=O)[C@H](CO)NC(=O)[C@H](CCCNC(N)=O)NC(=O)[C@@H](NC(=O)[C@H](C)NC(=O)[C@H](Cc1ccc(O)cc1)NC(=O)[C@@H](NC(=O)CN)C(C)C)[C@@H](C)O)C(C)C)C(=O)N[C@@H](CCCNC(N)=O)C(=O)O [APL34, GVYATCitSSAACitLCit]
IL-6 levels in the supernatant (PBMC): 5.2 ng/mL

YVAQNTLKLA [APL5]
IL-6 levels in the supernatant (PBMC): 8.7 ng/mL

CC(C)C[C@H](NC(=O)[C@H](CCCNC(=N)N)NC(=O)[C@@H](NC(=O)[C@H](C)NC(=O)[C@@H](N)CO)C(C)C)C(=O)N[C@@H](CCCNC(N)=O)C(=O)N[C@@H](CCCNC(=N)N)C(=O)N[C@@H](CO)C(=O)N[C@H](C(=O)N1CCC[C@H]1C(=O)NCC(=O)N[C@H](C(=O)N[C@@H](CCCNC(=N)N)C(=O)O)C(C)C)C(C)C [APL26, SAVRLCitRSVPGVR]
IL-6 levels in the supernatant (PBMC): 7 ng/mL

CC(C)C[C@H](NC(=O)CNC(=O)[C@H](CCCNC(N)=O)NC(=O)[C@H](C)NC(=O)[C@@H]1CCCN1C(=O)[C@@H]1CCCN1C(=O)[C@@H]1CCCN1C(=O)[C@H](C)NC(=O)[C@@H]1CCCN1C(=O)[C@H](CCCNC(N)=O)NC(=O)[C@H](CO)NC(=O)[C@H](CCCNC(=N)N)NC(=O)CNC(=O)[C@H](CCCNC(N)=O)NC(=O)[C@@H](NC(=O)[C@H](CO)NC(=O)[C@H](CCC(=O)O)NC(=O)[C@@H](NC(=O)[C@H](CO)NC(=O)[C@H](CO)NC(=O)[C@H](CCCNC(N)=O)NC(=O)[C@H](CC(C)C)NC(=O)[C@H](CCCNC(N)=O)NC(=O)[C@@H](N)C(C)C)C(C)C)[C@@H](C)O)C(=O)N[C@H](C(=O)O)[C@@H](C)O [APL37, VCitLCitSSVESTCitGRSCitPAPPPACitGLT]
CD3% [1]: 38.29 ± 11.34% | CD4% [1]: 19.25 ± 7.84% | CD8% [1]: 18.33 ± 6.15% | IFN-γ [1]: 2.44 ± 0.31 pg/mL | IL-2 [1]: 3.28 ± 2.59 pg/mL | IL-4 [1]: 1.77 ± 0.85 pg/mL | TNF-α [1]: 4.96 ± 2.01 pg/mL | CD3% [2]: 64.55 ± 17.31% | CD4% [2]: 28.84 ± 9.35% | CD8% [2]: 27.61 ± 9.99% | IFN-γ [2]: 5.11 ± 0.54 pg/mL | IL-2 [2]: 4.46 ± 0.44 pg/mL | IL-4 [2]: 2.18 ± 0.29 pg/mL | TNF-α [2]: 2.51 ± 0.41 pg/mL | ALT level ([3]; at sacrifice, day 28): 47.37 ± 21.13 U/L | Observation on the daily condition of mice ([3]; during administration): No abnormality | Observation on the daily condition of rats ([4]; during administration): No abnormality | Tuberculosis recurrence rate ([4]; peptides 0.2 mmol, adalimumab 1 mg/kg, 21 days): 0% | Culture of MTB from lungs and spleens of rats at sacrifice ([4]; sacrifice on day 22, peptides 0.2 mmol, adalimumab 1 mg/kg): Negative

CC(C)C[C@H](NC(=O)[C@H](CC(C)C)NC(=O)[C@@H](NC(=O)[C@@H](N)C(C)C)C(C)C)C(=O)N[C@H](C(=O)N[C@@H](C)C(=O)N[C@H](C(=O)N[C@@H](CCC(=O)O)C(=O)NCC(=O)N[C@@H](CCCNC(N)=O)C(=O)N[C@H](C(=O)N[C@@H](CCCNC(=N)N)C(=O)N[C@H](C(=O)N[C@@H](C)C(=O)N[C@@H](CO)C(=O)N[C@@H](C)C(=O)N[C@@H](Cc1ccc(O)cc1)C(=O)N[C@@H](CCC(N)=O)C(=O)N[C@@H](CC(=O)O)C(=O)N[C@@H](CCCCN)C(=O)O)C(C)C)C(C)C)[C@@H](C)O)C(C)C [APL36]
IL-6 levels in the supernatant (PBMC): 6.8 ng/mL

CC(C)C[C@H](NC(=O)[C@@H](NC(=O)[C@H](Cc1ccccc1)NC(=O)[C@H](CO)NC(=O)[C@@H](N)CCCNC(=N)N)[C@@H](C)O)C(=O)N[C@@H](CC(=O)O)C(=O)N[C@@H](CO)C(=O)N[C@@H](CO)C(=O)N[C@@H](CCC(=O)O)C(=O)N[C@H](C(=O)NCC(=O)N[C@H](C(=O)NCC(=O)O)C(C)C)[C@@H](C)O [APL15]
IL-6 levels in the supernatant (PBMC): 8.7 ng/mL

RSFTLAASETGVG [APL16]
IL-6 levels in the supernatant (PBMC): 6.8 ng/mL

CC(C)C[C@H](NC(=O)[C@H](CCCCN)NC(=O)[C@H](CC(N)=O)NC(=O)[C@H](C)NC(=O)[C@H](CCCNC(N)=O)NC(=O)[C@H](CC(N)=O)NC(=O)[C@@H](NC(=O)[C@H](Cc1ccccc1)NC(=O)[C@H](CC(=O)O)NC(=O)[C@@H](N)CCC(N)=O)[C@@H](C)O)C(=O)N[C@@H](CCCCN)C(=O)N[C@@H](CC(N)=O)C(=O)N[C@@H](CO)C(=O)O [APL35, QDFTNCitANKLKNS]
IL-6 levels in the supernatant (PBMC): 20.8 ng/mL

CC(C)C[C@H](NC(=O)[C@H](C)NC(=O)[C@@H](NC(=O)[C@H](C)NC(=O)[C@@H](N)CO)C(C)C)C(=O)N[C@@H](CCCNC(N)=O)C(=O)N[C@@H](CO)C(=O)N[C@@H](CO)C(=O)N[C@H](C(=O)N1CCC[C@H]1C(=O)NCC(=O)N[C@H](C(=O)N[C@@H](CCCNC(=N)N)C(=O)O)C(C)C)C(C)C [APL24, SAVALCitSSVPGVR]
IL-6 levels in the supernatant (PBMC): 6.6 ng/mL

YAKQATLKLA [APL6]
IL-6 levels in the supernatant (PBMC): 6.5 ng/mL

CC[C@H](C)[C@H](N)C(=O)N[C@@H](Cc1c[nH]c2ccccc12)C(=O)N[C@@H](Cc1ccc(O)cc1)C(=O)N[C@H](C(=O)N[C@H](C(=O)N[C@@H](CS)C(=O)N[C@@H](Cc1ccccc1)C(=O)NCC(=O)N[C@@H](CS)C(=O)N[C@@H](CCC(=O)O)C(=O)N[C@H](C(=O)N[C@@H](Cc1c[nH]cn1)C(=O)N[C@@H](C)C(=O)N[C@@H](CCSC)C(=O)N[C@@H](CC(C)C)C(=O)O)[C@@H](C)O)[C@@H](C)O)[C@@H](C)CC [APL10] (H-IWYITCFGCETHAML-OH; N-terminus and C-terminus assumed)
IL-6 levels in the supernatant (PBMC): 4.9 ng/mL

RSFTLASSATGVG [APL17]
IL-6 levels in the supernatant (PBMC): 5.4 ng/mL
